Source: patent US8088758B2, “17β-hydroxysteroid dehydrogenase type I inhibitors” (Abbott Products GmbH, priority 2003, dated 2012)

Molecular target: T1, recombinant human 17β-hydroxysteroid dehydrogenase type 1 (Homo sapiens, UniProt P14061)
T1 construct: made in house; host or cells: Sf9 insect cells (baculovirus, Bac to Bac Expression System)
T1 sequence (P14061 1-328): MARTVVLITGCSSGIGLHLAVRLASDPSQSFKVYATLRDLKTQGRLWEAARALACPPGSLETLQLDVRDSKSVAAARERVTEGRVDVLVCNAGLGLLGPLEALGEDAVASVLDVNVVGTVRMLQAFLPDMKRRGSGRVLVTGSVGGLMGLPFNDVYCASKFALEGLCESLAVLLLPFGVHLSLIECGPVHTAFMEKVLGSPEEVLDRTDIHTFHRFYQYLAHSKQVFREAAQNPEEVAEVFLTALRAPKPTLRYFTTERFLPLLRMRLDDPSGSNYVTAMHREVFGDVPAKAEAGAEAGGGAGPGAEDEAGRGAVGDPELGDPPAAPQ
Assay: Inhibition of recombinant human 17β-hydroxysteroid dehydrogenase type 1 (conversion of 3H-estrone to estradiol, HPLC)
Assay type: biochemical
Details: 30 nM 3H-estrone, 1 mM NADPH, 30 min at RT; for inhibition at 0.1 µM: inhibitor 100 nM, read-out: Inhibition of rec. 17β-HSD1 (% inhibition), 100 nM; for inhibition at 1 µM: inhibitor 1 μm, read-out: Inhibition of rec. 17β-HSD1 (% inhibition), 1 μm
Experimental: 1. Inhibition of the 17β-hydroxysteroid Dehydrogenase Type 1 Enzyme
17β-HSD1 Purification: Recombinant baculovirus was generated by the “Bac to Bac Expression System” (Invitrogen). Recombinant bacmid was transfected to Sf9 insect cells using “Cellfectin Reagent” (Invitrogen). 60 h later cells were harvested; the microsomal fraction was isolated as described by Puranen et al. 1994. Aliquots were stored frozen until determination of enzymatic activity.
Assay—Inhibition of Recombinant Human 17β-hydroxysteroid Dehydrogenase Type 1:
Recombinant protein (0.1 μg/ml) was incubated in 20 mM KH2PO4 pH 7.4 with 30 nM 3H-estrone and 1 mM NADPH for 30 min at RT, in the presence of potential inhibitors at concentrations of 1 μM or 0.1 μM. Inhibitor stock solutions were prepared in DMSO. Final concentration of DMSO was adjusted to 1% in all samples. The enzyme reaction was stopped by addition of 10% trichloroacetic acid (final concentration). Samples were centrifuged in a microtiter plate at 4000 rpm for 10 min. Supernatants were applied to reverse phase HPLC on a Waters Symmetry C18 column, equipped with a Waters Sentry Guard column. Isocratic HPLC runs were performed at RT at a flow rate of 1 ml/min of acetonitrile:water 48:52 as running solvent. Radioactivity was monitored in the eluate by a Packard Flow Scintillation Analyzer. Total radioactivity for estrone and estradiol were determined in each sample and percent conversion of estrone to estradiol was calculated according to the following formula:
Percent inhibition was calculated as follows: % inhibition=100−% conversion

Row | Compound | inhibition at 0.1 µM | inhibition at 1 µM
1 | COc1ccc2c(c1)CC[C@H]1[C@@H]3[C@H](CCC(=O)N4CCOCC4)CC(=O)[C@@]3(C)CC[C@H]21 [Example 316] | 25.3% | 74.5%
2 | COc1ccc2c(c1)CC[C@H]1[C@@H]3[C@H](CCCCOC(=O)Nc4cccc(F)c4)CC(=O)[C@@]3(C)CC[C@H]21 [Example 751] | 27.7% | 67.7%
3 | C[C@]12CC[C@@H]3c4ccc(O)cc4CC[C@H]3[C@@H]1[C@@H](CCCC(=O)N1CCOCC1)CC2=O [Example 40, 3-Hydroxy-15α-(4-morpholin-4-yl-4-oxo-butyl)-estra-1,3,5(10)-trien-17-one] | 32.3% | 79.4%
4 | CNC(=O)CCC[C@@H]1CC(=O)[C@@]2(C)CC[C@@H]3c4ccc(O)cc4CC[C@H]3[C@H]12 [Example 4A, 4-(3-Hydroxy-17-oxo-estra-1,3,5(10)-trien-15β-yl)-N-methyl-butyramide] | 47.1% | 66%
5 | COc1ccc2c(c1)CC[C@H]1[C@@H]3[C@H](CCCCCC(=O)NCc4ccccc4)CC(=O)[C@@]3(C)CC[C@H]21 [Example 359] | 40.5% | 88.3%
6 | COc1ccc2c(c1)CC[C@H]1[C@@H]3[C@H](CCCCCC(=O)NCc4ccco4)CC(=O)[C@@]3(C)CC[C@H]21 [Example 350] | 27.7% | 80.7%
7 | COc1ccc2c(c1)CC[C@H]1[C@@H]3[C@H](CCCCC(=O)NCc4ccc(Cl)cc4)CC(=O)[C@@]3(C)CC[C@H]21 [Example 343] | 47.1% | 86%
8 | COc1ccc2c(c1)CC[C@H]1[C@@H]3[C@H](CCCCC(=O)NC4CCCCC4)CC(=O)[C@@]3(C)CC[C@H]21 [Example 331] | 37% | 88%
9 | COc1ccc2c(c1)CC[C@H]1[C@@H]3[C@H](CCCCC(=O)NC4CC4)CC(=O)[C@@]3(C)CC[C@H]21 [Example 330] | 25.2% | 75.9%
10 | C[C@]12CC[C@@H]3c4ccc(O)cc4CC[C@H]3[C@@H]1[C@@H](CCCCNC(=O)NCC1CCCCC1)CC2=O [Example 491] | 56.9% | 83%
11 | COc1ccc2c(c1)CC[C@H]1[C@@H]3[C@H](CCCCC(=O)NCc4ccc5c(c4)OCO5)CC(=O)[C@@]3(C)CC[C@H]21 [Example 335] | 59% | 90.5%
12 | COc1ccc2c(c1)CCC1C2CC[C@]2(C)C(=O)C[C@@H](CCCC(=O)NCCc3c[nH]c4c(C)cccc34)C12 (some centres unmarked) [Example 31] | 52.8% | 77.9%
13 | COc1ccc2c(c1)CCC1C2CC[C@]2(C)C(=O)C[C@@H](CCCC(=O)NCCc3cccs3)C12 (some centres unmarked) [Example 29] | 29.6% | 69.3%
14 | COc1ccc2c(c1)CC[C@H]1[C@@H]3[C@H](CCC(=O)NCCc4cccs4)CC(=O)[C@@]3(C)CC[C@H]21 [Example 327] | 28.7% | 77%
15 | COc1ccc2c(c1)CC[C@H]1[C@@H]3[C@H](CCCCC(=O)NCCc4c[nH]c5c(C)cccc45)CC(=O)[C@@]3(C)CC[C@H]21 [Example 347] | 38% | 77.2%
16 | COc1ccc(NC(=O)NCCC[C@@H]2CC(=O)[C@@]3(C)CC[C@@H]4c5ccc(OC)cc5CC[C@H]4[C@H]23)cc1 [Example 446] | 72.4% | 94.2%
17 | COc1ccc2c(c1)CC[C@H]1[C@@H]3[C@H](CCCOC(=O)Nc4ccc(C(F)(F)F)cc4)CC(=O)[C@@]3(C)CC[C@H]21 [Example 745] | 29.9% | 53.5%
18 | COc1ccc2c(c1)CC[C@H]1[C@@H]3[C@H](CCCCC(=O)NCCc4cccs4)CC(=O)[C@@]3(C)CC[C@H]21 [Example 346] | 58.2% | 91.7%
19 | COc1ccc2c(c1)CC[C@H]1[C@@H]3[C@H](CCCCC(=O)NCc4cccnc4)CC(=O)[C@@]3(C)CC[C@H]21 [Example 338] | 28.7% | 84.6%

Row | Compound | inhibition at 0.1 µM | inhibition at 1 µM
20 | COc1ccc2c(c1)CC[C@H]1[C@@H]3[C@H](CCCCCC(=O)NCc4ccc(Cl)cc4)CC(=O)[C@@]3(C)CC[C@H]21 [Example 362] | 35.1% | 75.1%
21 | COc1ccc2c(c1)CC[C@H]1[C@@H]3[C@H](CCC(=O)Nc4ncc(C)s4)CC(=O)[C@@]3(C)CC[C@H]21 [Example 329] | 78.9% | 96.2%
22 | COc1ccc2c(c1)CC[C@H]1[C@@H]3[C@H](CCCOC(=O)Nc4ccc(Cl)c(Cl)c4)CC(=O)[C@@]3(C)CC[C@H]21 [Example 749] | 29.8% | 57.3%
23 | C[C@]12CC[C@@H]3c4ccc(O)cc4CC[C@H]3[C@@H]1[C@@H](CNS(=O)(=O)c1ccc([N+](=O)[O-])cc1)CC2=O [Example 667] | 30.3% | 72.3%
24 | C[C@]12CC[C@@H]3c4ccc(O)cc4CC[C@H]3[C@@H]1[C@H](CCCO)CC2=O [Example 823, 3-Hydroxy-15β-(3-Hydroxypropyl)-estra-1,3,5(10)-trien-17-one] | 76.1% | 97%
25 | COc1ccc2c(c1)CC[C@H]1[C@@H]3[C@H](CCCOC(=O)Nc4ccc(Cl)cc4Cl)CC(=O)[C@@]3(C)CC[C@H]21 [Example 744] | 37.1% | 53.9%
26 | CN(C[C@H]1CC(=O)[C@@]2(C)CC[C@@H]3c4ccc(O)cc4CC[C@H]3[C@H]12)S(=O)(=O)c1ccc(F)cc1 [Example 685] | 36% | 85.6%
27 | COc1ccc2c(c1)CC[C@H]1[C@@H]3[C@H](CCC(=O)NC4CCCCC4)CC(=O)[C@@]3(C)CC[C@H]21 [Example 310] | 67.9% | 91.7%
28 | COc1ccc(NC(=O)NCCCC[C@@H]2CC(=O)[C@@]3(C)CC[C@@H]4c5ccc(OC)cc5CC[C@H]4[C@H]23)cc1 [Example 471] | 28.7% | 77%
29 | COc1ccc2c(c1)CCC1C2CC[C@]2(C)C(=O)C[C@H](C(=O)Nc3ncc(C)s3)C12 (some centres unmarked) [Example 105] | 33.8% | 81%
30 | COc1ccc2c(c1)CC[C@H]1[C@@H]3[C@H](CCCCC(=O)N(C)Cc4ccccc4)CC(=O)[C@@]3(C)CC[C@H]21 [Example 344] | 39.8% | 88.9%
31 | CN(Cc1ccccc1)C(=O)CCC[C@@H]1CC(=O)[C@@]2(C)CC[C@@H]3c4ccc(O)cc4CC[C@H]3[C@H]12 [Example 38, N-Benzyl-4-(3-hydroxy-17-oxo-estra-1,3,5(10)-trien-15β-yl)-N-methyl-butyramide] | 60.5% | 89.5%
32 | CCCCNC(=O)CCCC[C@@H]1CC(=O)[C@@]2(C)CC[C@@H]3c4ccc(OC)cc4CC[C@H]3[C@H]12 [Example 345] | 33% | 85.6%
33 | C[C@]12CC[C@@H]3c4ccc(O)cc4CC[C@H]3[C@@H]1[C@@H](CNS(=O)(=O)c1ccc(F)cc1)CC2=O [Example 665] | 54.6% | 91.2%
34 | COc1ccc2c(c1)CC[C@H]1[C@@H]3[C@H](CCCCC(=O)NCc4cccc(F)c4)CC(=O)[C@@]3(C)CC[C@H]21 [Example 342] | 40.4% | 89.2%
35 | COc1ccc2c(c1)CC[C@H]1[C@@H]3[C@H](CCCCNC(=O)NCc4ccccc4)CC(=O)[C@@]3(C)CC[C@H]21 [Example 477] | 31.7% | 79.5%
36 | COc1ccc2c(c1)CC[C@H]1[C@@H]3[C@H](CCCOC(=O)Nc4ccc5c(c4)OCO5)CC(=O)[C@@]3(C)CC[C@H]21 [Example 748] | 48.7% | 90.6%
37 | COc1ccc2c(c1)CC[C@H]1[C@@H]3[C@H](CCCCCC(=O)N(C)Cc4ccccc4)CC(=O)[C@@]3(C)CC[C@H]21 [Example 364] | 48.7% | 90.8%
